Test results as given in US11576905B2, “Topical semisolid composition containing an antimicrobial agent and pirfenidone for the treatment of chronic skin damage” (Excalibur Pharmaceuticals, Inc., priority 2017, dated 2023).

What was measured:
COL1α = COL1α gene expression in ulcer tissue biopsies of treated patients; type: in vivo, human; conditions: first month of treatment
TGFβ1 = TGFβ1 gene expression in ulcer tissue biopsies of treated patients; type: in vivo, human; conditions: first month of treatment

O=C(c1ccc(F)cc1)C1CCN(CCn2c(=O)[nH]c3ccccc3c2=O)CC1 [KTS, Ketanserin]
Patients showing an increase in COL1α expression (COL1α): 43% | Patients showing an increase in TGFβ1 gene expression (TGFβ1): 29%
